In patent US20140102978A1, “Composition and Method for Remediation of Contaminated Water” (JRW BIOREMEDIATION LLC, priority 2012, published 2014) one finds Observation data, which are given here for 1 substance.

This data set is described as follows: Thiosulfate/Gluconate physical compatibility screening. The class given is physicochemical. As to conditions: heated to no more than 115° F, visual and olfactory. From the text:
The final solution was stored at room temperature for 15 days and then examined to determine relative storage stability.

Take ferrous gluconate: the Observation result is, setting by setting: (1 g ferrous gluconate (Mole % 4%) added to 25 g sodium thiosulfate) “Mild odor, dissolved when warmed”; (2 g ferrous gluconate (Mole % 7%) added to 25 g sodium thiosulfate) “Mild odor, dissolved when warmed”; (3 g ferrous gluconate (Mole % 11%) added to 25 g sodium thiosulfate) “Mod odor, dissolved when warmed”; (4.5 g ferrous gluconate (Mole % 16%) added to 25 g sodium thiosulfate) “Mod odor, dissolved when warmed”; (5 g ferrous gluconate (Mole % 19%) added to 25 g sodium thiosulfate) “Mod odor, dissolved when warmed”; (6 g ferrous gluconate (Mole % 22%) added to 25 g sodium thiosulfate) “Mod odor, dissolved when warmed”. For the same substance, the Observation result runs as follows: (7 g ferrous gluconate (Mole % 26%) added to 25 g sodium thiosulfate) “Mod odor, dissolved when warmed”; (8 g ferrous gluconate (Mole % 30%) added to 25 g sodium thiosulfate) “Mod odor, dissolved when warmed”; (9 g ferrous gluconate (Mole % 33%) added to 25 g sodium thiosulfate) “Mod odor, dissolved when warmed”; (10 g ferrous gluconate (Mole % 37%) added to 25 g sodium thiosulfate) “Mod odor, dissolved when warmed”; (14 g ferrous gluconate (Mole % 52%) added to 25 g sodium thiosulfate) “Mod odor, dissolved when warmed”.
